{"source": "patent US10683282B2", "about": "“Multi-substituted pyrimidine derivatives with excellent kinase inhibitory activities” (KOREA INSTITUTE OF SCIENCE AND TECHNOLOGY, priority 2018, dated 2020)", "key": {"Ba/F3 FLT3-ITD": {"tested_on": "Ba/F3 FLT3-ITD", "test": "Ba/F3 FLT3-ITD growth inhibition", "type": "cell-based", "conditions": "Ba/F3 FLT3-ITD cells"}, "L929": {"tested_on": "L929", "test": "Cytotoxicity test (cell counting kit-8)", "type": "cell-based", "conditions": "Mus musculus, WST-8", "source_text": "(§1) Cell counting kit-8 assay is a general test method for identifying cell viability using a pale yellow tetrazolium salt called “WST-8”. WST-8, which is soluble in water, is degraded by a dehydrogenase present in the cells, forming orange formazan. Formazan dye is formed by dehydrogenase activity proportional to the number of viable cells, and thus can be used as an indicator for cell viability. The Hill equation of Graphpad Prism was used for analysis."}, "NIH3T3": {"tested_on": "NIH3T3", "test": "Cytotoxicity test (cell counting kit-8)", "type": "cell-based", "conditions": "Mus musculus, WST-8", "source_text": "as §1"}, "HFL-1": {"tested_on": "HFL-1", "test": "Cytotoxicity test (cell counting kit-8)", "type": "cell-based", "conditions": "Homo sapiens, HFL1, WST-8", "source_text": "as §1"}, "CYP 3A4": {"biological_target": "CYP 3A4 (Homo sapiens, UniProt P08684)", "sequence (P08684 whole entry)": "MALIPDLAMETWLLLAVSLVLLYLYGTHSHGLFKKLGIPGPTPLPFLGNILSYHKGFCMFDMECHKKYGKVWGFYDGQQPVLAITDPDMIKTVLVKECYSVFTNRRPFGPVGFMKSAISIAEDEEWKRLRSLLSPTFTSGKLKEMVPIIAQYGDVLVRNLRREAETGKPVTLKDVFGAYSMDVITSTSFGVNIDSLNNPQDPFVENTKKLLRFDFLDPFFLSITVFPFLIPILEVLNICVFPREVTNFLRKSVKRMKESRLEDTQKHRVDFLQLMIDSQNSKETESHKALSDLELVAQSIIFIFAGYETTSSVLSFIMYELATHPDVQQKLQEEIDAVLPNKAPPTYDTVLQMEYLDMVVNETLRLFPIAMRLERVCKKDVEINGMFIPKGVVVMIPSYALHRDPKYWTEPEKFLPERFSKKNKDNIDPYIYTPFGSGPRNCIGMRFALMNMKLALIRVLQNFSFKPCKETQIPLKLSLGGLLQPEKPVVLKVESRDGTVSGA", "test": "CYP450 assay (luminescence)", "type": "in vitro ADME", "conditions": "CYP 3A4 enzyme with substrate, compound at 10 μM, read-out: inhibitory activity against human CYP 3A4", "method": "(§2) Compound 5 and a positive control stock solution were diluted with water to prepare a 40 μM working solution, and a solution containing an enzyme and a substrate was prepared using water and buffer. Compound 5/control/positive control and the solution were each dispensed on a 96-well and preincubated at 37° C. for 10 minutes. The resulting substance was reacted with NADPH for 20 minutes at 37° C. and a detection reagent was added to terminate the reaction. After stabilization at room temperature for 20 minutes, a luminescence signal was measured."}, "CYP 1A2": {"biological_target": "CYP 1A2 (Homo sapiens, UniProt P05177)", "sequence (P05177 whole entry)": "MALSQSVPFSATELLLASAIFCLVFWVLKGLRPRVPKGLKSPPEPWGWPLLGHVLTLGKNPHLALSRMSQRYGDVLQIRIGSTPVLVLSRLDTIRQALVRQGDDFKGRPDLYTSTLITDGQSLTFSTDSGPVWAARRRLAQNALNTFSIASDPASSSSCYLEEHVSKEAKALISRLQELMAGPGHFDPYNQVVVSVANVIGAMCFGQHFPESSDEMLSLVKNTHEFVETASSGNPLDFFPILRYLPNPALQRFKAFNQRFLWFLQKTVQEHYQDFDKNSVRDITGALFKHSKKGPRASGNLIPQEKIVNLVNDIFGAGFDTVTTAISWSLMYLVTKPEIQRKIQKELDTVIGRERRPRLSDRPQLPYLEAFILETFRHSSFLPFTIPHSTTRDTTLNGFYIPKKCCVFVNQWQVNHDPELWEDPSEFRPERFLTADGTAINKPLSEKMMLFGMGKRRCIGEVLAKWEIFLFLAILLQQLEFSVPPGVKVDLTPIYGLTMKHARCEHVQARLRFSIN", "test": "CYP450 assay (luminescence)", "type": "in vitro ADME", "conditions": "human, CYP 1A2 enzyme with substrate; compound at 10 μM; read-out: inhibitory activity against human CYP 1A2", "method": "as §2"}, "VERO": {"tested_on": "VERO", "test": "Cytotoxicity test (cell counting kit-8)", "type": "cell-based, African green monkey", "conditions": "Chlorocebus sabaeus, WST-8", "source_text": "as §1"}, "human CYP isozymes": {"tested_on": "human CYP isozymes", "test": "CYP450 assay, summary over human CYP isozymes", "type": "in vitro ADME", "conditions": "10 μM", "method": "as §2"}, "[1]": {"test": "Cytotoxicity test (cell counting kit-8), summary over respective cells", "type": "cell-based", "conditions": "African green monkey, human, mouse, Chinese hamster, NIH3T3 and CHO-K1 cells; criterion 10 μM; VERO, HFL-1, L929, NIH3T3, CHO-K1", "source_text": "as §1"}, "Ba/F3 parental": {"tested_on": "Ba/F3 parental", "test": "Ba/F3 parental growth inhibition", "type": "cell-based", "conditions": "Mus musculus, BaF3; Ba/F3 parental cells"}, "FLT3 (ITD)": {"biological_target": "FLT3 (ITD) (Homo sapiens, UniProt P36888)", "test": "FLT3 mutant enzyme activity, HotSpot assay", "type": "biochemical", "conditions": "ATP 10 μM", "method": "(§3) Kinase screening was performed using a “HotSpot” assay platform method by Reaction Biology Corporation. The reaction buffer used herein contained 20 mM HEPES (pH 7.5), 10 mM MgCl2, 1 mM EGTA, 0.02% Brij35, 0.02 mg/mL BSA, 0.1 mM Na3VO4, 2 mM DTT and 1% DMSO. The required cofactors were added in accordance with the kinase reaction. Freshly made buffer and cofactors were added at a concentration of 20 μM during the selected enzyme reaction. A solution of the test compound in dimethylsulfoxide (DMSO) was added at a suitable concentration to this solution. In order to initiate reaction, […] (specific activity […]) was added and incubated at room temperature for 2 hours. The test compound was screened at a starting concentration of 20 μM in a 10-dose IC50 mode. IC50 of Staurosporine used as a control drug was obtained at a starting concentration of 20 μM in a 10-dose IC50 mode."}, "FLT3 (D835Y)": {"biological_target": "T1, FLT3 (D835Y) (Homo sapiens, UniProt P36888, D835Y)", "T1 construct": "purchased Reaction Biology Corporation", "test": "FLT3 mutant enzyme activity, HotSpot assay", "type": "biochemical", "conditions": "ATP 10 μM", "method": "as §3"}, "FLT3 (ITD)-NPOS": {"biological_target": "FLT3 (ITD)-NPOS (Homo sapiens, UniProt P36888)", "test": "FLT3 mutant enzyme activity, HotSpot assay", "type": "biochemical", "conditions": "ATP 10 μM", "method": "as §3"}, "CHO-K1": {"tested_on": "CHO-K1", "test": "Cytotoxicity test (cell counting kit-8)", "type": "cell-based, Chinese hamster", "conditions": "Cricetulus griseus, WST-8", "source_text": "as §1"}, "hERG K+ channel": {"biological_target": "hERG K+ channel (Homo sapiens, UniProt Q12809)", "sequence (Q12809 whole entry)": "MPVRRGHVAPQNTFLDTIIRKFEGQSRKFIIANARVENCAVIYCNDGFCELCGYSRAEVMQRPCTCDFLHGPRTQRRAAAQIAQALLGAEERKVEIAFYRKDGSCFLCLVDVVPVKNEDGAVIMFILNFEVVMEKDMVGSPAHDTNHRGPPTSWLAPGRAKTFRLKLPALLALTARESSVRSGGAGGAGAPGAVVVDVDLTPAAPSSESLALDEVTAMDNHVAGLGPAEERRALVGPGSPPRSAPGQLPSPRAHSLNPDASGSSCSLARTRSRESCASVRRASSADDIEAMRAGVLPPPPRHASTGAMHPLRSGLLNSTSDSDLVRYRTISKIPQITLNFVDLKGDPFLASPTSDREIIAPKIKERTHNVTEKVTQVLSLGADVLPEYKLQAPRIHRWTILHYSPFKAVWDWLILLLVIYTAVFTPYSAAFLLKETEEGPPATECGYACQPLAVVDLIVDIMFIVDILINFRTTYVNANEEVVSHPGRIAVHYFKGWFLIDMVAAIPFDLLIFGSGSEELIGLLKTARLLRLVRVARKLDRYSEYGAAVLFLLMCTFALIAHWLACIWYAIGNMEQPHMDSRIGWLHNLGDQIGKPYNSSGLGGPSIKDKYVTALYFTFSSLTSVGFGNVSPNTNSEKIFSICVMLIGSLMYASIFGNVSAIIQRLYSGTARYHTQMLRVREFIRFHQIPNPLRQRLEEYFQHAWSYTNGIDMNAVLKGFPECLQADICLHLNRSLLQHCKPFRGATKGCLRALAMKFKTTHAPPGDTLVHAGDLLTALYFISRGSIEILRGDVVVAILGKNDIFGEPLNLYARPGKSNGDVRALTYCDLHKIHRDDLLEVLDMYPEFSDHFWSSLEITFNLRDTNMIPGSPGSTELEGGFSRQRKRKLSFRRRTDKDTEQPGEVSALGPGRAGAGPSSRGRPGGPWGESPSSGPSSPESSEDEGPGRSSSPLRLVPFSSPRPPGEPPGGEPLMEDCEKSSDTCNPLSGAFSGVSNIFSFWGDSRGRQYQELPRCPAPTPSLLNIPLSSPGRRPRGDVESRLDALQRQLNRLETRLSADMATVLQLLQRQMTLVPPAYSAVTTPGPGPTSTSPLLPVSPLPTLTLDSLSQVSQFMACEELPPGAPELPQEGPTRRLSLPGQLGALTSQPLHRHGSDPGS", "test": "hERG K+ channel binding assay (fluorescence polarization)", "method": "The hERG tracer and membranes were dissolved at room temperature before use, the tracer and hERG assay buffer were diluted at 1:62.5 and a test substance was diluted to 40 μM with assay buffer. 5 μL of the test substance, a positive control (astemizole or E-4031) and a negative control (DMSO) were dispensed into a 384-well plate, the membranes are dispensed at 10 μL using a multi-pipette and 5 μl of the tracer was dispensed. The light was blocked and incubated at 25° C. for 2 to 3 hours. Then, polarization was measured using a TECAN plate reader (Infinite M1000 pro)."}}}
{"smiles": "Clc1cnc(Nc2ccc(OCCN3CCCC3)cc2)nc1NCc1ccco1", "note": "[Compound 5, 5-chloro-4-(furan-2-yl)methylamino-2-[4-{2-(pyrrolidin-1-yl)ethoxy}phenylamino]pyrimidine]", "values": [{"measurement": "GI50", "setting": "Ba/F3 FLT3-ITD", "value": 0.042, "unit": "µM"}, {"measurement": "IC50", "setting": "L929", "value": 40.3, "unit": "µM"}, {"measurement": "IC50", "setting": "NIH3T3", "value": "> 100", "unit": "µM"}, {"measurement": "IC50", "setting": "HFL-1", "value": 35.6, "unit": "µM"}, {"measurement": "inhibition at 20 min, 10 µM", "setting": "CYP 3A4", "value": 22.1, "unit": "%"}, {"measurement": "inhibition at 20 min, 10 µM", "setting": "CYP 1A2", "value": 1.93, "unit": "%"}, {"measurement": "IC50", "setting": "VERO", "value": 19.7, "unit": "µM"}, {"measurement": "CYP inhibition conclusion (more than 50% inhibition needs attention)", "setting": "human CYP isozymes", "value": "stable"}, {"measurement": "IC50", "setting": "[1]", "value": "≥ 10", "unit": "µM"}, {"measurement": "GI50", "setting": "Ba/F3 parental", "value": 1.82, "unit": "µM"}, {"measurement": "IC50", "setting": "FLT3 (ITD)", "value": 0.0015, "unit": "µM"}, {"measurement": "IC50", "setting": "FLT3 (D835Y)", "value": "< 0.001", "unit": "µM"}, {"measurement": "IC50", "setting": "FLT3 (ITD)-NPOS", "value": 0.0045, "unit": "µM"}, {"measurement": "IC50", "setting": "CHO-K1", "value": "> 100", "unit": "µM"}, {"measurement": "hERG K+ channel binding as indicator of toxicity in the heart, conclusion", "setting": "hERG K+ channel", "value": "stable in the heart"}, {"measurement": "IC50", "setting": "hERG K+ channel; concentrations 0.01, 0.1, 1, 2, 5, 10, 20, 50 μM", "value": 15.2, "unit": "µM"}]}
